Test results as given in patent publication US20170258722A1, “ENCAPSULATING LIPOSOMES” (priority 2012, published 2017).

Experimental: Chloroform was removed by flash evaporation and the lipid mixture was dissolved in 1 ml of warm tert-butanol (also referred to as t-butanol). The tert-butanol solution of lipid was then frozen rapidly by immersing the tube in a mixture of isopropanol and dry ice. […] The excess sulfuric acid was then neutralized by adding an appropriate volume of 5 M sodium hydroxide alone or with phosphate buffer. […] After drug loading, the mixture was diluted with 0.9% w/v sodium chloride and sedimented in an ultracentrifuge for 1 hour at 30,000×g. The supernatant was carefully removed and the pellet was re-suspended in a small volume of 0.9% w/v NaCl.
First, DPPC/cholesterol films were lyophilized from t-butanol-treated lipid films. […] Liposomes were sedimented by centrifugation at 30,000 rpm for 0.5 hour to remove any unencapsulated drug.
To measure the encapsulated contents of the liposomes, the liposomes were washed in 0.9% NaCl solution and solubilized with 1:3:1 NaCl:methanol:chloroform.

CCN(CC)CCCC(C)Nc1ccnc2cc(Cl)ccc12 (centres unmarked) [chloroquine]
Drug Loading (% of Added) (Table 2, DPPC:Cholesterol 2:1 liposomes, 0.375M sulfuric acid, phosphate buffered loading): 100 % of Added
loaded using the acid loading methodology (sulfuric acid 0.375 M, 6 mg buprenorphine, 33 mg chloroquine added): 100%
